According to patent publication US11498943B2, “Amyloid inhibitory peptides” (TECHNISCHE UNIVERSITÄT MÜNCHEN, priority 2018, dated 2022):
Read-outs that look alike come from different tables or passages of the source. Values belong to the compound of their own block, whether it stands above or below them. Where a SMILES comes first, the peptide text is derived from it. Bridges are numbered along the chain shown (N, C = ends). [ ]: non-standard residue; d: D form. The star is where a group is joined. 5FAM = O=C1OC2(c3ccc(O)cc3Oc3cc(O)ccc32)c2ccc(C(=O)*)cc21; NMeI = CC[C@H](C)[C@H](NC)C(=O)O; Sar = CNCC(=O)O

Tests used:
Aβ40 [1] = target: T1, Aβ40 (Homo sapiens, UniProt P05067); experiment: Fluorescence spectroscopic titration of Dac-Aβ40; assay type: binding; conditions: Dac-Aβ40 10 nM, pH 7.4
T1 construct: Aβ40 (TFA salt) was synthesized by Fmoc-based solid phase synthesis (SPPS); made in house; host or cells: chemical synthesis (Fmoc SPPS on Tentagel R PHB resin)
T1 sequence (P05067 672-711): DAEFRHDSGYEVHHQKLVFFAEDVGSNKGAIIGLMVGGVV
Method: (§1) Fluorescence Spectroscopic Titration Studies
(§2) A JASCO FP-6500 fluorescence spectrophotometer was used for the fluorescence spectroscopic titrations, which were performed by using previously described experimental protocols. […] App. […] Briefly, freshly made stock solutions of peptides and fluorescently labeled analogs in HFIP were used. Measurements were performed in 10 mM sodium phosphate buffer, pH 7.4 ([…]) at room temperature within 2-5 min following solution preparation. […] App. Kds were estimated using 1/1 binding models as previously described. […] KdDs are means (+SD) from three binding curves.

IAPP [2] = target: T2, IAPP (Homo sapiens, UniProt P10997); experiment: Fluorescence spectroscopic titration of Fluos-IAPP; assay type: binding; parameters: IAPP was synthesized by SPPS and the Fmoc-strategy on RINK resin, subjected to air oxidation and purified by RP-HPLC; made in house; host or cells: chemical synthesis (Fmoc SPPS on RINK resin, air oxidation); conditions: Fluos-IAPP 5 nM, pH 7.4
T2 sequence (P10997 34-70 limits assumed): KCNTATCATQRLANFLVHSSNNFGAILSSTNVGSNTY
Method: as §1, §2

IAPP [3] = target: T2, IAPP; experiment: MTT reduction assay: IC50 of inhibitory effect on cell-damaging amyloid self-assembly of IAPP (RIN5fm cells)
Method: (§3) Assessment of Cell Damage by MTT Reduction Assay
(§4) Both cell lines were cultured and plated in 96-well plates as described. […] Following incubation with the cells for ˜20 h (37° C., humidified atmosphere with 5% CO2), the MTT reduction assay was used to assess cell damage/metabolic activity as previously described.

Aβ40 [4] = target: T1, Aβ40; experiment: MTT reduction assay: IC50 of inhibitory effect on cell-damaging amyloid self-assembly of Aβ40 (PC12 cells); assay type: cell-based
Method: as §3, §4

[5] = Peptide stability in human plasma (in vitro); assay type: in vitro ADME; conditions: human blood plasma, 200 μM peptide, 37° C.
Method: Peptide Stability in Human Plasma (In Vitro)
Peptides were dissolved in human blood plasma (obtained from voluntary healthy donors) at a concentration of 200 μM and incubated at 37° C. for various time intervals. Following quenching (1/1) with aqueous trichloroacetic acid (10%), solutions were incubated on ice for 10 min, subjected to centrifugation to precipitate plasma proteins (20200 g; 4 min), and the supernatants were mixed (1/2) with a solution consisting of 80% HPLC buffer B and 20% HPLC buffer A (see below). To quantify intact peptide at different time points, solutions containing the supernatants were analyzed by RP-HPLC (detection at 214 nm) by using a Nucleosil 100 C18 column (Grace) (length 33 mm length, ID 8 mm, 7 μm particle size) with a flow rate of 2.0 ml/min and eluting buffers A, 0.058% (v/v) TFA in water, and B, 0.05% (v/v) TFA in 90% (v/v) CH3CN in water. The elution gradient was 10-90% B in A over 8 min; this step was followed by a 90-10% B in A over 3 min step to establish starting conditions. HPLC fractions were collected, lyophilized, and analyzed by MALDI-TOF-MS using a Bruker Daltonik MALDI-TOF MS instrument.

[6] = target: recombinant human neprilysin (NEP) (Homo sapiens, UniProt P08473); conditions: peptide 100 μM, NEP 500 ng/ml, pH 6.5, 37° C.
Sequence of recombinant human neprilysin (NEP) (P08473 whole entry): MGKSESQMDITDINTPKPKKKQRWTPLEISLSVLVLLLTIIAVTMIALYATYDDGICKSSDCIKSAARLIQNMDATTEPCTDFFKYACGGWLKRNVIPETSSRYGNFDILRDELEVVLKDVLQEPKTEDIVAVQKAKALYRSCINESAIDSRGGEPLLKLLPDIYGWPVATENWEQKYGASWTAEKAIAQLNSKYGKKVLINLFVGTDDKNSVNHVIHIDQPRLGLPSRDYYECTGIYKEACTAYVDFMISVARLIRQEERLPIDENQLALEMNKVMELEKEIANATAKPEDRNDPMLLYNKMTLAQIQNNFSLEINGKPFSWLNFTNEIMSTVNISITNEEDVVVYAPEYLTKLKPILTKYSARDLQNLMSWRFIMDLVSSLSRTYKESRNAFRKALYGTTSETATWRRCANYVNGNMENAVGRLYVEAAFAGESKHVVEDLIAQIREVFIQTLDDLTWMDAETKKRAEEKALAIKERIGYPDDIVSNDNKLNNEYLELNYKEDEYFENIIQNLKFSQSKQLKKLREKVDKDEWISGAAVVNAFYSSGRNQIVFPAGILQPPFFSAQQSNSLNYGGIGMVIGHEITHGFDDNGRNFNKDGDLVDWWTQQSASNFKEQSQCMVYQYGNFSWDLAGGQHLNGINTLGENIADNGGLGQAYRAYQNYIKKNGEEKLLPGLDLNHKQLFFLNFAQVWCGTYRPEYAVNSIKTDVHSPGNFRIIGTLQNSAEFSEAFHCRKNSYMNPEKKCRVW
Description: Peptide Stability Toward Degradation by Human Neprilysin (In Vitro)
At indicated time points aliquots were quenched (1/1) with aqueous trichloroacetic acid (10%) and solutions were subjected to HPLC analysis and HPLC fractions were collected and analyzed by MALDI-TOF-MS as described under “Peptide stability in human plasma” (above).

hCMEC/D3 cells = experiment: Human BBB Transwell permeability assay (in vitro); conditions: hCMEC monolayer on Transwell; peptides 10 μM, Lucifer yellow 20 μM; mean (±SEM)
Method: Human BBB Transwell Permeability Assay (In Vitro)
Human cerebral microvascular endothelial (hCMEC/D3) cells (Merck) were cultured in collagen type I-coated dishes in EndoGro-MV complete culture media kit supplemented with 1 ng/mL fibroblast growth factor-2 (FGF-2) (all reagents from Merck) (at 37° C. and 5% CO2). […] The Transwell permeability assay was then performed based on a previously established assay using 24-well plates (Sigma-Aldrich) containing 6.5 mm Transwell inserts (0.4 μm pore polycarbonate membrane (Corning)) as follows:
hCMEC/D3 cells were grown in endothelial cell medium (ECM), containing EndoGro-MV complete media, 10% fetal bovine serum (FBS), 1% penicillin-streptamycine (P/S), and 1 ng/mL FGF-2 on the membranes of the Transwell inserts (2×10^5 cells/insert) (37° C. and 5% CO2) until full confluency was reached (normally after 5-7 days of culture). Confluency and BBB-type tightness was verified by TEER analysis; TEER values of 60-80 Ωcm^2 were obtained. The upper and lower chambers then were reconstituted with 200 μl and 800 μl, respectively, of ECM containing 2% FBS. The N-terminal fluorescein-labeled 12 amino acid-long peptide [sequence]-amide (Fluos-Trfb) known to readily cross the BBB via binding to the transferrin receptor, was used as a positive control for BBB permeability in this model.
As a reference point for the maximum fluorescence intensity, 100 μl of medium from the upper chamber at 0 h was also transferred and quantified. […] Lucifer yellow in the lower chamber was quantified by measuring the fluorescence at 530 nm (excitation at 485 nm). Relative permeability (FIG. 3f) was calculated by dividing the fluorescence value of the aliquot from the lower chamber at each time point by the fluorescence value of the 0 h-lower chamber aliquot.
Reported Papp values are means (±SEM) from at least 3 transport assays (each of them performed in triplicates).

[7] = Aβ40 500 nM, 72 h-aged solutions, PC12 cells, MTT reduction, means (±SD) from 3-4 titration assays, read-out: IC50 (±SD) (nM) Aβ40 inhibition
[8] = RP-HPLC and MALDI-TOF-MS, read-out: Half-life time in human plasma

Papp A→B: 14.6 ×10⁻⁶ cm/s
Compound: CC[C@H](C)[C@H]1C(=O)NCC(=O)NCC(=O)N[C@@H](C(N)=O)CSSC[C@@H](NC(=O)c2ccc3c(c2)C(=O)OC32c3ccc(O)cc3Oc3cc(O)ccc32)C(=O)NCC(=O)N[C@H](Cc2ccccc2)C(=O)N[C@H](CC(C)C)C(=O)NCC(=O)NCC(=O)N[C@H](CCCNC(=N)N)C(=O)N[C@H](CCCNC(=N)N)C(=O)N[C@H](CCCNC(=N)N)C(=O)NCC(=O)N[C@H](Cc2ccccc2)C(=O)N(C)CC(=O)NCC(=O)N1C [Fluos-2e] (5FAM-[dC]G[dF][dL]GG[dR][dR][dR]G[dF][Sar]G[NMeI]GG[dC]-NH2; disulfide 1-17; N-terminus assumed)

Papp A→B: 20.8 ×10⁻⁶ cm/s
Compound: CSCC[C@H](NC(=O)[C@@H]1CCCN1C(=O)[C@@H]1CCCN1C(=O)[C@H](CCCNC(=N)N)NC(=O)[C@H](Cc1c[nH]cn1)NC(=O)[C@@H](NC(=O)c1ccc2c(c1)C(=O)OC21c2ccc(O)cc2Oc2cc(O)ccc21)[C@@H](C)O)C(=O)N[C@@H](Cc1c[nH]c2ccccc12)C(=O)N[C@@H](CO)C(=O)N1CCC[C@H]1C(=O)N[C@H](C(=O)N[C@@H](Cc1c[nH]c2ccccc12)C(=O)N1CCC[C@H]1C(N)=O)C(C)C [Fluos-Trfb, reference compound] (5FAM-THRPPMWSPVWP-NH2; N-terminus assumed)

Compound: CC[C@H](C)[C@H]1C(=O)N[C@@H](CC(C)C)C(=O)N[C@@H](CO)C(=O)N[C@H](C(N)=O)CSSC[C@H](N)C(=O)N[C@@H](C)C(=O)N[C@@H]([C@@H](C)O)C(=O)N[C@@H](CCC(N)=O)C(=O)N[C@@H](CCCNC(=N)N)C(=O)N[C@@H](CC(C)C)C(=O)N[C@@H](C)C(=O)N[C@@H](CC(N)=O)C(=O)N[C@@H](Cc2ccccc2)C(=O)N[C@@H](CC(C)C)C(=O)N[C@@H](C(C)C)C(=O)N[C@@H](Cc2c[nH]cn2)C(=O)N[C@@H](CCCNC(=N)N)C(=O)N[C@@H](CCCNC(=N)N)C(=O)N[C@@H](CCCNC(=N)N)C(=O)N[C@@H](CC(N)=O)C(=O)N[C@@H](Cc2ccccc2)C(=O)N(C)CC(=O)N[C@@H](C)C(=O)N1C [Peptide 1a] (H-CATQRLANFLVHRRRNF[Sar]A[NMeI]LSC-NH2; disulfide 1-23; N-terminus assumed)
app. Kd of interaction with N-terminal fluorescently labeled Aβ40 (Aβ40 [1]): mid-nanomolar | app. Kd of interaction with N-terminal fluorescently labeled IAPP (IAPP [2]): mid-nanomolar

Compound: CC[C@H](C)[C@H]1C(=O)N[C@@H](CC(C)C)C(=O)N[C@@H](CO)C(=O)N[C@H](C(N)=O)CSSC[C@H](N)C(=O)N[C@@H](CC(N)=O)C(=O)N[C@@H](Cc2ccccc2)C(=O)N[C@@H](CC(C)C)C(=O)N[C@@H](C(C)C)C(=O)N[C@@H](Cc2c[nH]cn2)C(=O)N[C@@H](CCCNC(=N)N)C(=O)N[C@@H](CCCNC(=N)N)C(=O)N[C@@H](CCCNC(=N)N)C(=O)N[C@@H](CC(N)=O)C(=O)N[C@@H](Cc2ccccc2)C(=O)N(C)CC(=O)N[C@@H](C)C(=O)N1C [Peptide 2a] (H-CNFLVHRRRNF[Sar]A[NMeI]LSC-NH2; disulfide 1-17; N-terminus assumed)
Potency against IAPP cytotoxic self-assembly relative to 1a (IAPP [3]; ratio of IC50s): ~3 fold | app. Kd of interaction with N-terminal fluorescently labeled Aβ40 (Aβ40 [1]): mid-nanomolar | app. Kd of interaction with N-terminal fluorescently labeled IAPP (IAPP [2]): mid-nanomolar

Compound: CC[C@H](C)[C@H]1C(=O)NCC(=O)NCC(=O)N[C@H](C(N)=O)CSSC[C@H](N)C(=O)NCC(=O)N[C@@H](Cc2ccccc2)C(=O)N[C@@H](CC(C)C)C(=O)NCC(=O)NCC(=O)N[C@@H](CCCNC(=N)N)C(=O)N[C@@H](CCCNC(=N)N)C(=O)N[C@@H](CCCNC(=N)N)C(=O)NCC(=O)N[C@@H](Cc2ccccc2)C(=O)N(C)CC(=O)NCC(=O)N1C [Peptide 2b] (H-CGFLGGRRRGF[Sar]G[NMeI]GGC-NH2; disulfide 1-17)
IC50 (Aβ40 [4]): 654 nM | IC50 (IAPP [3]): 426 nM | app. Kd of interaction with N-terminal fluorescently labeled Aβ40 (Aβ40 [1]): mid-nanomolar | half-life at 200 μM ([5]; read-out: t1/2 in human plasma): ~0.75 h | app. Kd of interaction with N-terminal fluorescently labeled IAPP (IAPP [2]): mid-nanomolar

IC50 (Aβ40 [4]; [7]): 204 nM | half-life at 200 μM [5, 8]: 1 to 2 h
Compound: CC[C@H](C)[C@H]1C(=O)NCC(=O)NCC(=O)N[C@H](C(N)=O)CSSC[C@H](N)C(=O)NCC(=O)N[C@@H](Cc2ccccc2)C(=O)N[C@@H](CC(C)C)C(=O)NCC(=O)NCC(=O)N[C@H](CCCNC(=N)N)C(=O)N[C@H](CCCNC(=N)N)C(=O)N[C@H](CCCNC(=N)N)C(=O)NCC(=O)N[C@@H](Cc2ccccc2)C(=O)N(C)CC(=O)NCC(=O)N1C [Peptide 2c] (H-CGFLGG[dR][dR][dR]GF[Sar]G[NMeI]GGC-NH2; disulfide 1-17)

IC50 (Aβ40 [4]; [7]): 703 nM | half-life at 200 μM [5, 8]: 1 to 2 h
Compound: CC[C@H](C)[C@H]1C(=O)NCC(=O)NCC(=O)N[C@H](C(N)=O)CSSC[C@H](N)C(=O)NCC(=O)N[C@H](Cc2ccccc2)C(=O)N[C@H](CC(C)C)C(=O)NCC(=O)NCC(=O)N[C@H](CCCNC(=N)N)C(=O)N[C@H](CCCNC(=N)N)C(=O)N[C@H](CCCNC(=N)N)C(=O)NCC(=O)N[C@H](Cc2ccccc2)C(=O)N(C)CC(=O)NCC(=O)N1C [Peptide 2d] (H-CG[dF][dL]GG[dR][dR][dR]G[dF][Sar]G[NMeI]GGC-NH2; disulfide 1-17)

Compound: CC[C@H](C)[C@H]1C(=O)NCC(=O)NCC(=O)N[C@@H](C(N)=O)CSSC[C@@H](N)C(=O)NCC(=O)N[C@H](Cc2ccccc2)C(=O)N[C@H](CC(C)C)C(=O)NCC(=O)NCC(=O)N[C@H](CCCNC(=N)N)C(=O)N[C@H](CCCNC(=N)N)C(=O)N[C@H](CCCNC(=N)N)C(=O)NCC(=O)N[C@H](Cc2ccccc2)C(=O)N(C)CC(=O)NCC(=O)N1C [Peptide 2e] (H-[dC]G[dF][dL]GG[dR][dR][dR]G[dF][Sar]G[NMeI]GG[dC]-NH2; disulfide 1-17)
IC50 (Aβ40 [4]): 542 nM | half-life at 200 μM [5, 8]: > 11 h | Resistance to degradation by human neprilysin [6]: fully resistant to degradation

Compound: Lucifer yellow
Apparent permeability (Papp) at 2 h (hCMEC/D3 cells): 5.3×10^−6 (±2.7) cm/s
